Measurements reported in patent US9949369B2, “Cyanate ester compound, curable resin composition containing the same, and hardened product thereof” (MITSUBISHI GAS CHEMICAL COMPANY, INC., priority 2013, dated 2018).

Experiment: Solubility of the cyanate ester monomer in methyl ethyl ketone (MEK)
Format: physicochemical
Conditions: 25° C.

| amount that could be dissolved in methyl ethyl ketone (MEK) [% by mass] | Structure (SMILES) |
| --- | --- |
| ≥ 50 | CC12CC3(C)CC(c4ccc(OC#N)cc4)(C1)CC(c1ccc(OC#N)cc1)(C2)C3 [AMTCN, 1,3-Bis(4-Cyanatophenyl)-5,7-Dimethyladamantane] |
| ≥ 50 | Cc1cc(C23CC4(C)CC(C)(C2)CC(c2ccc(OC#N)c(C)c2)(C4)C3)ccc1OC#N [AMTcCN, 1,3-Bis(3-Methyl-4-Cyanatophenyl)-5,7-Dimethyladamantane] |
